From patent US12152038B2, “Vasopressin receptor antagonists and products and methods related thereto” (Neumora Therapeutics, Inc., priority 2017, dated 2024) come the findings set out here.

The assay concerns the target T1, V1a receptors (Rattus norvegicus, UniProt P30560).
T1 construct: Rat choroid plexus (RCP) cell lines express functional V1a receptors; endogenous in cells; host or cells: rat choroid plexus (RCP) cell line, RCP P9(18)
Kind of assay: AVP induced phospho-ERK measurement in rat choroid plexus (RCP) cells. In kind it is cell-based. As to conditions: RCP cells stimulated with AVP, pERK1/2 to total ERK1/2 ratio. On the procedure:
Rat choroid plexus (RCP) cell lines express functional V1a receptors measured by increased calcium concentrations in response to V1a receptor agonists (Battle et al., Biochem. Biophys. Res. Comm. 2000).
RCP P9(18) cells were seeded 30K/well, in 100 μl growth medium containing 10% FBS in polystyrene 96-well plates and incubated at 37° C., 5% CO2 and incubated overnight. The following day, the growth medium was replaced with 50 μl pre-warmed HBSS containing 20 mM HEPES and the cells were incubated at 37° C., 5% CO2 for 1.5 hrs. 1 mM AVP (Sigma V9879) was freshly prepared in distilled water in a glass vial and diluted to 3× concentrations in HBSS containing 20 mM HEPES and 0.1% BSA in glass vials and kept on ice. […] Final concentrations of AVP: 10, 100 or 1000 nM. […] Cells were lysed with 25 μl 4×CST lysis buffer containing protease and phosphatase inhibitors, PMSF and SDS and then stored at −80° C., for 48 h. The lysates were thawed, centrifuged at 2000 g for 30 min at 4° C. and 40 μl supernatants assayed for pERK1/2 (Thr202/Tyr204; Thr185/Tyr187) and total ERK1/2 using MSD kit K15107D. The MSD ECL data for the lysates were corrected for no cell blanks, then phospho-protein levels expressed as a ratio to the total ERK1/2 level. The ratios were expressed as fold-change from the vehicle-treated control at each timepoint.

SMILES strings stand for the structures.

T1 sequence (P30560 whole entry): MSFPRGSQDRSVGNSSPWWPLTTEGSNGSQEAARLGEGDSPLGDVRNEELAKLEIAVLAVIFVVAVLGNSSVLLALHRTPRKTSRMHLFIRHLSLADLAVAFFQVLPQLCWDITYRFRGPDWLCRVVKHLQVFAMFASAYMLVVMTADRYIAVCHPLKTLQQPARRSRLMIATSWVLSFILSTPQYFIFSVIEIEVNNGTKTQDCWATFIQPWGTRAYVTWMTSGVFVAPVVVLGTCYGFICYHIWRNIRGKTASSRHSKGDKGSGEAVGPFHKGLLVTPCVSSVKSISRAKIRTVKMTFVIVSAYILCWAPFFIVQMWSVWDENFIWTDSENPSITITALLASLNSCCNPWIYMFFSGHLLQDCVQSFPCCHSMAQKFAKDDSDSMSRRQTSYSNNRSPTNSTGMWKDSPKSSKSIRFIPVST

A word on the IC50: it is the midpoint of a concentration-inhibition curve. Regarding `CC1COc2cc(Cl)ccc2N1C(=O)N1CC2(C1)CN(c1ncccn1)C2` (single isomer, unassigned) [1-83-B, (7-chloro-3-methyl-2,3-dihydro-4H-benzo[b][1,4]oxazin-4-yl)(6-(pyrimidin-2-yl)-2,6-diazaspiro[3.3]heptan-2-yl)methanone], the half-inhibitory concentration (IC50) stood at 16 nM (first study) and 20 nM (second study).
